Values after ≈ are worked out from the molar mass of the structure shown.
What was measured:
leukemic L1210 = assay: antitumor activity in leukemic L1210-bearing mice; type: in vivo, BDF1 mice; details: in words
Method: (§1) For example, BDF1 mice were inoculated intraperitoneally with 1×10^6 cells/mouse. 24 hours after inoculation, the compound was intraperitoneally injected once daily for 10 days consecutively. […] At the dose of 10 mg/kg/day weight loss was observed, but general toxicity was less than daunomycin.

[1] = system: biosynthesis of DNA in L1210 cells; assay: DNA biosynthesis in L1210 cells (incorporation of 14C-thymidine into acid-insoluble materials); type: cell-based, murine; details: Mus musculus, L1210, 1 h; 60 min, 37° C., 14C-thymidine 0.05 μCi/ml; read-out: IC50 of the incorporation of radioactivity into acid-insoluble materials, 14C-thymidine
Method: (§2) (2) L1210 cells were inoculated at 5×10^5 cells/ml into a RPMI 1640 medium containing 10% calf serum and cultivated at 37° C. for 1 to 2 hours in a CO2 incubator. The compound in the present invention at various concentrations and ^14 C-thymidine (0.05 μCi/ml) or ^14 C-uridine (0.05 μCi/ml) were added and incubated at 37° C. for 60 min. After stopping the pulse-labeling by addition of 10% trichloroacetic acid (TCA) to the reaction mixture, acid-insoluble materials were precipitated, washed 3 times with 5 to 10% TCA, and dissolved in a small amount of formic acid, and then the radioactivity of the solution was determined. Effects on the biosynthesis of DNA and RNA were shown by the 50% inhibition concentration (IC50) of the incorporation of radioactivity into acid-insoluble materials.

[2] = system: murine leukemic L1210 cells; assay: growth inhibition of murine leukemic L1210 cells in culture; type: cell-based; details: Mus musculus, RPMI 1640, 20% calf serum, 37° C., read-out: inhibition of control growth; for inhibition at 0.5 µg/mL: 0.5 μg/ml
Method: For example, L1210 cells were inoculated into a RPMI 1640 medium (Nissui, Rosewell Park Memorial Institute 1640) containing 20% calf serum at the cell density of 5×10^4 cells/ml and the compound in the present invention was simultaneously added to the medium at the concentration of 0.1 and 0.5 μg/ml and cultivated at 37° C. in a CO2 incubator.

toxicity in mice = type: in vivo; details: in words
Method: as §1

[3] = system: biosynthesis of RNA in L1210 cells; assay: RNA biosynthesis in L1210 cells (incorporation of 14C-uridine into acid-insoluble materials); type: cell-based, murine; details: Mus musculus, L1210, 1 h; 60 min, 37° C., 14C-uridine 0.05 μCi/ml; read-out: IC50 of the incorporation of radioactivity into acid-insoluble materials, 14C-uridine
Method: as §2

Sal. typhimurium = assay: mutagenicity by the Ames' test

Compound	antitumor activity in leukemic L1210-bearing mice (leukemic L1210)	IC50 [1] [µg/mL]	inhibition at 0.1 µg/mL ([2]; 0.1 μg/ml) [%]	inhibition at 0.5 µg/mL [2] [%]	toxicity in mice compared with daunomycin (toxicity in mice)	IC50 [3] [µg/mL]	mutagenicity relative to daunomycin (Sal. typhimurium)
COc1ccc(O)c2c1C(=O)c1c(O)c3c(c(O)c1C2=O)C[C@@](O)(C(C)O)C[C@@H]3O[C@H]1C[C@H](N)[C@H](O)[C@H](C)O1 (stereo partly shown) [1-hydroxy-13-dihydrodaunomycin]	marked antitumor activity	3.8 (≈ 6.97 µM)	10.8	52.2	lower toxicity than daunomycin	1.8 (≈ 3.3 µM)	decrease about a half of daunomycin
COc1ccc(O)c2c1C(=O)c1c(O)c3c(c(O)c1C2=O)C[C@@](O)(C(C)O)C[C@@H]3O[C@H]1C[C@H](NC=O)[C@H](O)[C@H](C)O1 (stereo partly shown) [N-formyl-1-hydroxy-13-dihydrodaunomycin]	marked antitumor activity	> 2.5	–	16	lower toxicity than daunomycin	> 2.5	decrease about a half of daunomycin

From patent US4267312A, “Anthracycline derivatives and process for preparing the same” (Sanraku-Ocean Co., Ltd., priority 1978, dated 1981)
